Measured values reported in patent US20200078404A1, “COMBINATION OF A CELL THERAPY AND AN IMMUNOMODULATORY COMPOUND” (Juno Therapeutics, Inc., priority 2017, published 2020).

Key:
[1] = tested on: K562.CD19 target cells; test: Serial stimulation with K562.CD19: cytolytic function at day 24; format: cell-based, human; details: day 24 after serial stimulation
Source text: (§1) Every 3-4 days (start of each new round), the cells were counted.

[2] = tested on: anti-BCMA CAR T cells; test: Cytokine production of anti-BCMA CAR T cells on low, medium, high BCMA bead stimulation; format: cell-based, human
Experimental: In another study, recombinant human BCMA-conjugated beads were used to stimulate CAR T cells at various concentrations to titrate the magnitude of stimulation, either low (5 μg/mL), medium (50 μg/mL), and high (200 μg/mL) stimulation.

[3] = tested on: OPM2-ffluc tumor; test: OPM-2 human multiple myeloma orthotopic xenograft mouse model, Study 1; format: in vivo
Experimental: Mice (NOD.Cg-Prkdc^scidIL-2rg^tm1Wjl/SzJ mice (NSG; Jackson Labs)) were injected intravenously (i.v.) with 2×10^6 OPM2 (multiple myeloma) cells transfected with firefly luciferase (OPM2-ffluc). Tumor engraftment was allowed to occur for 13 days prior to staging (14 days before CAR-T cell administration) and verified using bioluminescence imaging.
Table E1 summarizes the dosing regimens.
Tumor burden in animals among the various groups was monitored by bioluminescence imaging up to day 39 post-CAR+ T cell dosing. For bioluminescence imaging, mice received intraperitoneal (i.p.) injections of luciferin substrate (CaliperLife Sciences, Hopkinton, Mass.) resuspended in PBS (15 μg/g body weight). The total flux (photon/s) was determined at each time point.
Table E2 lists median survival (ms) (as assessed at day 56 post-CAR+ T cell administration) and number of mice in group surviving until day 56-post-CAR+ T cell administration, for each animal group assessed in this study.

[4] = tested on: anti-BCMA CAR T cells with RPMI-8226; test: Cytokine production of anti-BCMA CAR T cells co-cultured with RPMI-8226 with or without lenalidomide; format: cell-based, human
Source text: Culture of T cells not expressing the anti-BCMA CAR (mock) was used as a control.

[5] = tested on: RPMI-8226 target cells; test: Cytolytic activity against RPMI-8226 after seven days incubation with BCMA-conjugated beads; format: cell-based, human
Experimental: Cytolytic activity of CAR+ T cells after incubation with BCMA-conjugated beads was assessed by incubation with the BCMA-expressing target cell line RPMI-8226, which is a BCMA+ multiple myeloma cell line. […] The number of viable cells was normalized to cells at day 0 prior to incubation with the RPMI-8226 target cells.

[6] = tested on: anti-CD19 CAR-expressing T cells; test: Serial stimulation with K562.CD19: surface markers; format: cell-based, human
Experimental: as §1
Expression of select surface markers was assessed on cells at day 4 (i.e., 4 days after the first stimulation) and day 28 (i.e., 4 days after the seventh stimulation). Specifically, harvested cells were analyzed by flow cytometry for CD3, CD4, CD8 and the surrogate marker for CAR expression, and also for the following surface markers: CD69, CD107a, PD-1, CD25, CD62L, CCR7, CD45RO, CD27, and LAG3.

[7] = tested on: anti-CD19 CAR+ T cells; test: Serial restimulation of anti-CD19 CAR+ T cells with K562-CD19 cells: expansion; format: cell-based, human; details: 1 μM lenalidomide, 4 rounds of stimulation, 12 days, two donors
Experimental: The ability of anti-CD19 CAR+ T cells to expand ex vivo following repeated stimulations was assessed using methods substantially as described in Example 2. […] For each donor, cells were harvested every 3-5 days from each experimental condition in the wells and counted, and restimulated with new target cells using the same culture conditions after resetting cell number to initial seeding density for each round. A total of 4 rounds of stimulation during a 12 day culture period were carried out. For each round of stimulation, the total number of cells was determined, and the results were depicted as the fold-change of cell number after stimulation (FIG. 17A) or number of doublings compared to initial number (FIG. 17B).

[8] = tested on: anti-CD19 CAR-expressing T cells; test: Surface markers after anti-idiotypic antibody stimulation; format: cell-based, human
Source text: CAR-expressing T cells were stained for CD3, CD4, CD8 and the surrogate marker for CAR expression, and also for the following markers: CD25, PD-1, and CD69.

[9] = medium stimulation (50 μg BCMA beads), 24 hours, 1 μM lenalidomide

Nc1cccc2c1CN(C1CCC(=O)NC1=O)C2=O (stereo not drawn) [lenalidomide, 3-(4-amino-1-oxo-1,3-dihydro-2H-isoindol-2-yl)piperidine-2,6-dione]
cytolytic activity of anti-CD19 CAR-expressing T cells [1]: increase the cytolytic activity | percentage of IFN-γ+ and TNF-α+ intracellular staining ([2]; 0.1 or 1.0 μM lenalidomide, all stimulation levels, CD4+ and CD8+): increased the percentage of IFN-γ^+ and TNF-α^+ intracellular staining | percentage of IL-2+ CAR+ T cells ([2]; 5-μg stimulation): increasing the percentage of IL-2^+ CAR^+ T cells | percentage of IL-2+ CAR+ T cells ([2]; 50-μg and 200-μg stimulation): decreasing the percentage of IL-2^+ CAR^+ T cells | CAR T cytokine production ([2]; absence of stimulation): had no effect on CAR T cytokine production | increase in IL-2 concentration compared with vehicle control [2, 9]: 200% | increase in TNF-α concentration compared with vehicle control [2, 9]: 200% | IFN-γ concentration compared with vehicle control ([2]; medium stimulation, 24 hours): donor-dependent increases | survival effects ([3]; added to anti-BCMA CAR+ T cells, high and low doses, day −1 or delayed dosing): improved survival effects | # animals surviving day 56 post-CART ([3]; lenalidomide 10 mg/kg i.p. daily from day −1 (A) or day 14 (B), cell dose hi 1.00E+06, low 5.00E+05): 0/8 | Median Survival (assessed at day 6) ([3]; lenalidomide 10 mg/kg i.p. daily from day −1 (A) or day 14 (B), cell dose hi 1.00E+06, low 5.00E+05, listed as lenalidomide (A)): 28 | Median Survival (assessed at day 6) ([3]; lenalidomide 10 mg/kg i.p. daily from day −1 (A) or day 14 (B), cell dose hi 1.00E+06, low 5.00E+05, listed as lenalidomide (B)): 25 | tumor growth or tumor burden ([3]; lenalidomide alone): not observed to reduce tumor growth or tumor burden | tumor growth and tumor burden ([3]; lenalidomide from day 14 added to CAR-T cells, both doses): trend towards slower tumor growth and reduced tumor burden | tumor growth and tumor burden (bioluminescence) ([3]; lenalidomide from day −1 added to CAR+ T cells, both doses): slower tumor growth and reduced tumor burden | CAR-dependent cytokine production and/or accumulation (IL-2, IFNγ, TNF-α) ([4]; 10 μM lenalidomide, E:T 0.3:1, 48 hours): increase in CAR-dependent cytokine production and/or accumulation | cytokine production by CAR-expressing T cells (IFN-γ, IL-2, TNF-α) ([4]; three healthy donors and one patient donor): significantly increased across all donors and cytokines | target cell viability ([5]; RPMI 8226 cells cultured with lenalidomide, no CAR T): did not directly influence target cell viability | killing activity ([5]; lenalidomide present during the cell killing assay): did not substantially affect killing activity | cytolytic activity of the CAR+ T cells ([5]; preincubation with 5 μM lenalidomide during seven day bead incubation): increased cytolytic activity of the CAR+ T cells | expression of CD28 ([6]; CD4+ and CD8+ CAR-expressing T cells, day 28, three donors): decreased in a dose-dependent manner | PD-1 expression ([6]; both E:T ratios, day 4 and day 28): downregulated to some degree in all donors | CD25 and LAG3 expression ([6]; day 4): upregulated across all three donors | CCR7 expression ([6]; day 28): generally decreased at day 28 | cell expansion of anti-CD19 CAR+ T cells [7]: no change or only a minor effect in cell expansion | surface markers CD25 and CD69 ([8]; CD4+ and CD8+ CAR-expressing T cells, day 4, some donors): increase in surface markers CD25 and CD69 | expression of PD-1 ([8]; day 4, unchanged or decreased in the other donors): increased in the presence of Compound 1 or lenalidomide in cells generated from at least one donor
